The assay deals with T1, SHP2 (Homo sapiens, UniProt Q06124).
T1 sequence (Q06124 1-593): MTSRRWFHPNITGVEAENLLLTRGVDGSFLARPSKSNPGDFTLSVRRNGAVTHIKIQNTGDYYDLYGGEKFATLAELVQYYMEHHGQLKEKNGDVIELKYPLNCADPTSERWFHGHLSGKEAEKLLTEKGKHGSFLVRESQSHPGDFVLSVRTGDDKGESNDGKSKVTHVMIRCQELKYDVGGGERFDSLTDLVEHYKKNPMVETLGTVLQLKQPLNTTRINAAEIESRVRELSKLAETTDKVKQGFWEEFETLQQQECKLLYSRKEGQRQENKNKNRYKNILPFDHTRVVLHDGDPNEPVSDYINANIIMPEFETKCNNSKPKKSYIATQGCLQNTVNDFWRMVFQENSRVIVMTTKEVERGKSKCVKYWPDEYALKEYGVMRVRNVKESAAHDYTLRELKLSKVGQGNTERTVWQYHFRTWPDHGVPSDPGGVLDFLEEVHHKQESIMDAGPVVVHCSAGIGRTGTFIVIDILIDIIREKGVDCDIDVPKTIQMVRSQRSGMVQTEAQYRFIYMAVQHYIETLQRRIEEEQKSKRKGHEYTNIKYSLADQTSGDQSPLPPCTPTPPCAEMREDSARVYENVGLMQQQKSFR
As to the kind of experiment: SHP2 allosteric inhibitor enzyme activity assay (DiFMUP fluorescence). The class given is biochemical. Conditions: class symbols. The gist of the method:
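SHP2 activated by 0.5 μM IRS1_pY1172(dPEG8)pY1222 peptide, 0.2 ng enzyme per well, 1 h at room temperature with compound (1 μM top, 3-fold series), then DiFMUP substrate 1 h. Buffer: 60 mM HEPES, 75 mM NaCl, 75 mM KCl, 0.05% BRIJ-35, 1 mM EDTA, 5 mM DTT. Fluorescence ex 340/em 450 nm; IC50 by variable-slope fit.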

The record followed here is patent publication US20230192705A1, “SHP2 INHIBITORS, COMPOSITIONS AND USES THEREOF” (Betta Pharmaceuticals Co., Ltd, priority 2020, published 2023).

The structures appear in SMILES notation. A value given as a limit tells only on which side of the number the result lay.

The IC50 is the concentration at which inhibition is half-maximal. Lower therefore signals inhibition by little substance. `N[C@@H]1COCC12CCN(c1nc3[nH]nc(C4(c5nc6ccccc6o5)CC4)c3c(=O)[nH]1)CC2` [Example 282, (S)-6-(4-amino-2-oxa-8-azaspiro[4.5]decan-8-yl)-3-(1-(benzo[d]oxazol-2-yl)cyclopropyl)-1,5-dihydro-4H-pyrazolo[3,4-d]pyrimidin-4-one] gave an IC50 of 20 to 60 nM.

Regarding `N[C@@H]1c2ccccc2CC12CCN(c1nc3[nH]nc(C4=CCc5ccccc54)c3c(=O)[nH]1)CC2` [Example 172, (S)-6-(1-amino-1,3-dihydrospiro[indene-2,4′-piperidin]-1′-yl)-3-(1H-inden-3-yl)-1,5-dihydro-4H-pyrazolo[3,4-d]pyrimidin-4-one], the half-inhibitory concentration (IC50) was at most 20 nM.

`N[C@@H]1c2ccccc2CC12CCN(c1nc3[nH]nc(C4(c5ccnc(Cl)c5Cl)CC4)c3c(=O)[nH]1)CC2` [Example 48, (S)-6-(1-amino-1,3-dihydrospiro[indene-2,4′-piperidin]-1′-yl)-3-(1-(2,3-dichloropyridin-4-yl)cyclopropyl)-1,5-dihydro-4H-pyrazolo[3,4-d]pyrimidin-4-one] returned a half-maximal inhibitory concentration (IC50) of at most 20 nM.

On to `N#Cc1ccc2c(c1)C(c1n[nH]c3nc(N4CCC5(CC4)Cc4ccccc4C5N)[nH]c(=O)c13)=CCC2(F)F` (centres unmarked) [Example 126], for which the IC50 was at most 20 nM.

Turning to `C[C@@H]1OCC2(CCN(c3nc(N)c(C4(c5ccccc5)CC4)c(=O)n3C)CC2)[C@@H]1N` [Example 264, 6-amino-2-((3S,4S)-4-amino-3-methyl-2-oxa-8-azaspiro[4.5]decan-8-yl)-3-methyl-5-(1-phenylcyclopropyl)pyrimidin-4(3H)-one], the 50% inhibitory concentration (IC50) was above 60 nM.

`CC1(C)C=C(c2n[nH]c3nc(N4CCC5(CC4)Cc4ccccc4[C@H]5N)[nH]c(=O)c23)c2cn(C3CC3)nc2C1` [Example 155, (S)-6-(1-amino-1,3-dihydrospiro[indene-2,4′-piperidin]-1′-y1)-3-(2-cyclopropyl-6,6-dimethyl-6,7-dihydro-2H-indazol-4-yl)-1,5-dihydro-4H-pyrazolo[3,4-d]pyrimidin-4-one] returned a 50% inhibitory concentration (IC50) of 20 to 60 nM.

In turn, `Cc1cc(C(F)F)c2c(n1)CCC=C2c1n[nH]c2nc(N3CCC4(CC3)Cc3ccccc3[C@H]4N)[nH]c(=O)c12` [Example 142, (S)-6-(1-amino-1,3-dihydrospiro[indene-2,4′-piperidin]-1′-yl)-3-(4-(difluoromethyl)-2-methyl-7,8-dihydroquinolin-5-yl)-1,5-dihydro-4H-pyrazolo[3,4-d]pyrimidin-4-one] came in with an IC50 of 20 to 60 nM.

`N[C@@H]1c2ccccc2CC12CCN(c1nc3[nH]nc(C4(c5ccnc(OC(F)F)c5)CC4)c3c(=O)[nH]1)CC2` [Example 53, (S)-6-(1-amino-1,3-dihydrospiro[indene-2,4′-piperidin]-1′-yl)-3-(1-(2-(difluoromethoxy)pyridin-4-yl)cyclopropyl)-1,5-dihydro-4H-pyrazolo[3,4-d]pyrimidin-4-one] had a half-maximal inhibitory concentration (IC50) of at most 20 nM.

The compound `N[C@@H]1c2ccccc2CC12CCN(c1nc3[nH]nc(C4=CCC5(CC5)c5ccccc54)c3c(=O)[nH]1)CC2` [Example 132, (S)-6-(1-amino-1,3-dihydrospiro[indene-2,4′-piperidin]-1′-yl)-3-(2′H-spiro[cyclopropane-1,1′-naphthalen]-4′-yl)-1,5-dihydro-4H-pyrazolo[3,4-d]pyrimidin-4-one] yielded a half-inhibitory concentration (IC50) of at most 20 nM.

As to `N[C@@H]1c2ccccc2CC12CCN(c1nc3[nH]nc([C@H]4C[C@H]4c4ccccc4)c3c3nncn13)CC2` [Example 107, (S)-1′-(9-((1S,2R)-2-phenylcyclopropyl)-7H-pyrazolo[4,3-e][1,2,4]triazolo[4,3-c]pyrimidin-5-yl)-1,3-dihydrospiro[indene-2,4′-piperidin]-1-amine], the half-inhibitory concentration (IC50) was 20 to 60 nM.

`N[C@@H]1c2ccccc2CC12CCN(c1nc3[nH]nc(C4=C(F)CCc5nc(Cl)ccc54)c3c(=O)[nH]1)CC2` [Example 188, (S)-6-(1-amino-1,3-dihydrospiro[indene-2,4′-piperidin]-1′-yl)-3-(2-chloro-6-fluoro-7,8-dihydroquinolin-5-yl)-1,5-dihydro-4H-pyrazolo[3,4-d]pyrimidin-4-one]: the 50% inhibitory concentration (IC50) is at most 20 nM.

Compound `N[C@@H]1c2ccccc2CC12CCN(c1nc3[nH]nc(C4(c5ccnc6c5CCCN6)CC4)c3c(=O)[nH]1)CC2` [Example 79, (S)-6-(1-amino-1,3-dihydrospiro[indene-2,4′-piperidin]-1′-yl)-3-(1-(5,6,7,8-tetrahydro-1,8-naplitliyridin-4-yl)cyclopropyl)-1,5-dihydro-4H-pyrazolo[3,4-d]pyrimidin-4-one] came in with a concentration for half-maximal inhibition (IC50) of at most 20 nM.

`Cc1cc2c(nn1)CC(C)(C)C=C2c1n[nH]c2nc(N3CCC4(CC3)Cc3ccccc3[C@H]4N)[nH]c(=O)c12` [Example 164, (S)-6-(1-amino-1,3-dihydrospiro[indene-2,4′-piperidin]-1′-yl)-3-(3,7,7-trimethyl-7,8-dihydrocinnolin-5-yl)-1,5-dihydro-4H-pyrazolo[3,4-d]pyrimidin-4-one] gave an IC50 of at most 20 nM.

The compound `CP(C)(=O)c1cccc(C2(c3n[nH]c4nc(N5CCC6(CC5)Cc5ccccc5[C@H]6N)[nH]c(=O)c34)CC2)c1` [Example 224, (S)-6-(1-amino-1,3-dihydrospiro[indene-2,4′-piperidin]-1′-yl)-3-(1-(3-(dimethylphosphoryl)phenyl)cyclo-propyl)-1,5-dihydro-4H-pyrazolo[3,4-d]pyrimidin-4-one] showed an IC50 of at most 20 nM.

The compound `N[C@@H]1c2ccccc2CC12CCN(c1nc3[nH]nc(C4(c5ccccc5)CCOC4)c3c(=O)[nH]1)CC2` (stereo partly drawn) [Example 98, 6-((S)-1-amino-1,3-dihydrospiro[indene-2,4′-piperidin]-1′-yl)-3-(3-phenyltetrahydrofuran-3-yl)-1,5-dihydro-4H-pyrazolo[3,4-d]pyrimidin-4-one] gave a half-maximal inhibitory concentration (IC50) of 20 to 60 nM.

Compound `COc1ccc(C2(c3n[nH]c4nc(N5CCC6(CC5)CO[C@@H](C)[C@H]6N)[nH]c(=O)c34)CC2)cc1` [Example 304, 6-((3S,4S)-4-amino-3-methyl-2-oxa-8-azaspiro[4.5]decan-8-yl)-3-(1-(4-methoxyphenyl)cyclopropyl)-1,5-dihydro-4H-pyrazolo[3,4-d]pyrimidin-4-one] returned an IC50 of 20 to 60 nM.

As to `C[C@@H]1OCC2(CCN(c3nc4[nH]nc(C5(c6ccc(F)cc6)CC5)c4c(=O)[nH]3)CC2)[C@@H]1N` [Example 292, 6-((3S,4S)-4-amino-3-methyl-2-oxa-8-azaspiro[4.5]decan-8-yl)-3-(1-(4-fluorophenyl)cyclopropyl)-1,5-dihydro-4H-pyrazolo[3,4-d]pyrimidin-4-one], the IC50 was in the range of 20 to 60 nM.

For the compound `C[C@@H]1OCC2(CCN(c3nc4[nH]nc(C5(c6ccncn6)CC5)c4c(=O)[nH]3)CC2)[C@@H]1N` [Example 273, 6-((3S,4S)-4-amino-3-methyl-2-oxa-8-azaspiro[4.5]decan-8-yl)-3-(1-(pyrimidin-4-yl)cyclopropyl)-1,5-dihydro-4H-pyrazolo[3,4-d]pyrimidin-4-one], the IC50 lay in the range of 20 to 60 nM.

The compound `N[C@@H]1c2cccnc2CC12CCN(c1nc3[nH]nc(C4(c5ccccc5)CC4)c3c(=O)[nH]1)CC2` [Example 200, (S)-6-(5-amino-5,7-dihydrospiro[cyclopenta[b]pyridine-6,4′-piperidin]-1-yl)-3-(1-phenylcyclopropyl)-1,5-dihydro-4H-pyrazolo[3,4-d]pyrimidin-4-one] yielded an IC50 of at most 20 nM.

With `CC1(C)C=C(c2n[nH]c3nc(N4CCC5(CC4)Cc4ccccc4[C@H]5N)[nH]c(=O)c23)c2cc(Br)cnc2C1` [Example 160, (S)-6-(1-amino-1,3-dihydrospiro[indene-2,4′-piperidin]-1′-yl)-3-(3-bromo-7,7-dimethyl-7,8-dihydroquinolin-5-yl)-1,5-dihydro-4H-pyrazolo[3,4-d]pyrimidin-4-one], the IC50 was at most 20 nM.

Turning to `CC(=O)c1cccc(C2(c3n[nH]c4nc(N5CCC6(CC5)CO[C@H](C)[C@@H]6N)[nH]c(=O)c34)CC2)c1` [Example 316, 3-(1-(3-acetylphenyl)cyclopropyl)-6-((3R,4R)-4-amino-3-methyl-2-oxa-8-azaspiro[4.5]decan-8-yl)-1,5-dihydro-4H-pyrazolo[3,4-d]pyrimidin-4-one], the half-maximal inhibitory concentration (IC50) lay within 20 to 60 nM.

Consider `C[C@@H]1OCC2(CCN(c3nc4[nH]nc(C5(c6ccc(C(F)(F)F)cc6)CC5)c4c(=O)[nH]3)CC2)[C@@H]1N` [Example 296, 6-((3S,4S)-4-amino-3-methyl-2-oxa-8-azaspiro[4.5]decan-8-yl)-3-(1-(4-(trifluoromethyl)phenyl)cyclopropyl)-1,5-dihydro-4H-pyrazolo[3,4-d]pyrimidin-4-one], for which the IC50 was above 60 nM.

Turning to `N[C@@H]1c2ccccc2CC12CCN(c1nc3[nH]nc(C4(c5ccncc5)CC4)c3c(=O)[nH]1)CC2` [Example 219, (S)-6-(1-amino-1,3-dihydrospiro[indene-2,4′-piperidin]-1′-yl)-3-(1-(pyridin-4-yl)cyclopropyl)-1,5-dihydro-4H-pyrazolo[3,4-d]pyrimidin-4-one], the IC50 is at most 20 nM.
